Drawing on patent US8889722B2, “Pharmaceutical composition containing optically active compound having thrombopoietin receptor agonist activity, and intermediate therefor” (Shionogi & Co., Ltd., priority 2007, dated 2014), this text covers EC50 and melting point for five compounds.

The first data set addresses T1, human TPO receptor (Homo sapiens, UniProt P40238).
T1 construct: expressed in transfected cells; host or cells: BaF-B03 (mouse pro-B cell line), strain BaF/hTPOR
T1 sequence (P40238 26-635): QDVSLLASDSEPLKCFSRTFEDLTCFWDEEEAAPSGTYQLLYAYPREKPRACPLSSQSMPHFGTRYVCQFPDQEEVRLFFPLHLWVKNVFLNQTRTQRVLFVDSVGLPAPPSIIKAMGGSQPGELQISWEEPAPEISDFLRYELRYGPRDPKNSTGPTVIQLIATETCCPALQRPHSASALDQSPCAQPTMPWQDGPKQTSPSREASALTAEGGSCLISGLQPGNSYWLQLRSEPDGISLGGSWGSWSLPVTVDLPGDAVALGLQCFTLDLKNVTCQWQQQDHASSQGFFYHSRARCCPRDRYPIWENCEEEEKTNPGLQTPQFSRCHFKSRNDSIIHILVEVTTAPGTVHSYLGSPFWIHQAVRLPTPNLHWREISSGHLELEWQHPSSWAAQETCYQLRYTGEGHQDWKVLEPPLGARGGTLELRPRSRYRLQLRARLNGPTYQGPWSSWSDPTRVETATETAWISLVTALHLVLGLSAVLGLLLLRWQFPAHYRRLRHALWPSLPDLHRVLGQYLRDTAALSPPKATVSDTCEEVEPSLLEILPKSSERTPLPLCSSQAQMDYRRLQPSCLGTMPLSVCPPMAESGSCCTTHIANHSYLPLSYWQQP
The data set is described as follows: TPO receptor responsiveness: proliferation of TPO-dependent BaF/hTPOR cells (WST-1). The format is cell-based. Conditions: 20 hours culture, WST-1 absorption at 450 nm, concentration exhibiting half-maximum responsiveness of human TPO, read-out: ED50 (the source's name). As to the method:
TPO receptor responsiveness of the compound represented by the formula (I) was measured using TPO-dependent cell strain BaF/hTPOR made by introducing a human TPO receptor gene into a BaF-B03 cell according to the method described in Collins et al., J. Cell. Physiol., 137: 293-298 (1988). A nucleotide sequence of a gene encoding thrombopoietin receptor is described in Vigon et al., Proc. Natl. Acad. Sci, 89:5640-5644 (1992). […] A BAF/hTPOR cell proliferated in a RPMI medium with 10% WEHI-3 culture solution added thereto was washed with PBS once, suspended in a RPMI medium with no WHEHI-3 culture solution added thereto, and cells were seeded on a 96-well microplate at a 5×10^4/well, and the present compound or TPO was added thereto. After cultured at 37° C. for 20 hours under 5% CO2 atmosphere, a WST-1 reagent (manufactured by Takara Shuzo, Co., Ltd) being a cell proliferation determination reagent was added, and absorption at 450 nm was measured after 4 hours.
(In general: Formazan colour is commonly taken as a measure of viable cells.)
As to `CCCCCCO[C@@H](C)c1cccc(-c2csc(NC(=O)c3cc(Cl)c(/C=C(\C)C(=O)O)c(Cl)c3)n2)c1OC` [Compound C-3B, (S)-(−)-(E)-3-(2,6-dichloro-4-{4-[3-(1-hexyloxyethyl)-2-methyloxyphenyl]thiazol-2-ylcarbamoyl}phenyl)-2-methylacrylic acid], the EC50 worked out at 1.09 nM.
On to `CCCCCC[C@H](OC)c1cccc(-c2csc(NC(=O)c3cc(Cl)c(/C=C(\C)C(=O)O)c(Cl)c3)n2)c1OC` [Compound C-1B, (S)-(E)-3-(2,6-dichloro-4-{4-[2-methyloxy-3-(1-methyloxyheptyl)-phenyl]thiazol-2-ylcarbamoyl}phenyl)-2-methylacrylic acid], for which the EC50 came out at 2.08 nM.
For the compound `CCCO[C@H](c1cccc(-c2csc(NC(=O)c3cc(Cl)c(/C=C(\C)C(=O)O)c(Cl)c3)n2)c1OC)C(C)(C)C` [Compound C-9B, (S)-(E)-3-(2,6-dichloro-4-{4-[3-(2,2-dimethyl-1-propyloxypropyl)-2-methyloxyphenyl]thiazol-2-ylcarbamoyl}phenyl)-2-methylacrylic acid], the EC50 stood at 0.09 nM.
With `CCCCCCO[C@H](C)c1cccc(-c2csc(NC(=O)c3cc(Cl)c(/C=C(\C)C(=O)O)c(Cl)c3)n2)c1OC` [Compound C-3A, (R)-(E)-3-(2,6-dichloro-4-{4-[3-(1-hexyloxyethyl)-2-methyloxyphenyl]thiazol-2-ylcarbamoyl}phenyl)-2-methylacrylic acid], the EC50 stood at 1.4 nM.
`CCCCCC[C@@H](OC)c1cccc(-c2csc(NC(=O)c3cc(Cl)c(/C=C(\C)C(=O)O)c(Cl)c3)n2)c1OC` [Compound C-1A, (R)-(E)-3-(2,6-dichloro-4-{4-[2-methyloxy-3-(1-methyloxyheptyl)phenyl]thiazol-2-ylcarbamoyl}phenyl)-2-methylacrylic acid]: the EC50 amounted to 3.09 nM.

System in the next data set: not given
Test: not given
Conditions: not given
For `CCCCCC[C@H](OC)c1cccc(-c2csc(NC(=O)c3cc(Cl)c(/C=C(\C)C(=O)O)c(Cl)c3)n2)c1OC` [Compound C-1B, (S)-(E)-3-(2,6-dichloro-4-{4-[2-methyloxy-3-(1-methyloxyheptyl)-phenyl]thiazol-2-ylcarbamoyl}phenyl)-2-methylacrylic acid], the melting point fell in the range of 162 to 164 °C.

By melting point is commonly meant the temperature, or range, at which the solid turns liquid.
